# Laboratory results published in patent US20240400577A1, “MODULATORS OF PROTEIN KINASES” (VIBLIOME THERAPEUTICS, LLC, priority 2021, published 2024).
# What was measured:
# Assay in all cases: Kinase panel enzymatic inhibition assay (Nanosyn)
# Assay type in all cases: biochemical
# [1] = biological target: T1, AXL (Homo sapiens, UniProt P30530); conditions: ATP at Km; 30-minute pre-incubation; read-out: kinase inhibition in terms of IC50, AXL
# T1 construct: Nanosyn (contract laboratory that ran the panel)
# T1 sequence (P30530 26-894): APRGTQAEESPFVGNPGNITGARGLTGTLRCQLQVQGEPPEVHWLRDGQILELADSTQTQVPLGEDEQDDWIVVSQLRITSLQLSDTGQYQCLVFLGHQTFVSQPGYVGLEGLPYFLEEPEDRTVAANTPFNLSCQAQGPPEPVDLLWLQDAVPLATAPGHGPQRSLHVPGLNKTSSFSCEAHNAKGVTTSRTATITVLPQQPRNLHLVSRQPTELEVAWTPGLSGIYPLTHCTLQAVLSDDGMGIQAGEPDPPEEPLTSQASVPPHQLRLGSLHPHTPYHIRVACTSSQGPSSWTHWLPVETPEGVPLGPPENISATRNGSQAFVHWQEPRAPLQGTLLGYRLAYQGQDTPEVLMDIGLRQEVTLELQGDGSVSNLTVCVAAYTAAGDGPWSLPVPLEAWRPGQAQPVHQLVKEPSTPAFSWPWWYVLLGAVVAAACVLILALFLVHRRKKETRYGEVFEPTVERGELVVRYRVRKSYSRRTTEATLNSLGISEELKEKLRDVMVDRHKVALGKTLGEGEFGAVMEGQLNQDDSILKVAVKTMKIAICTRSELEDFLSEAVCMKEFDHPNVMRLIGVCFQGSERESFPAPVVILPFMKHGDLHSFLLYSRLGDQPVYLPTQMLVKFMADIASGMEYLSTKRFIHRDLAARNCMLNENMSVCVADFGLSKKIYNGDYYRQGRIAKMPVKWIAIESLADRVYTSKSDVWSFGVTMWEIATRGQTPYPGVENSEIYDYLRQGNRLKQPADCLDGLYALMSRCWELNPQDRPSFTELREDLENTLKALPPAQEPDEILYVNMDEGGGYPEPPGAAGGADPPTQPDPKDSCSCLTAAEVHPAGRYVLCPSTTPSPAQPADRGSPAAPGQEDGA
# Summary of the method: (§1)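 Read-out is percent inhibition or IC50, obtained by mobility shift, ADP detection or time-resolved fluorescence detection. Each kinase was run with ATP at its Km, and compound at 5 μM was pre-incubated for 30 minutes.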
# [2] = biological target: T2, ITK (Homo sapiens, UniProt Q08881); conditions: ATP at Km; 30-minute pre-incubation; read-out: kinase inhibition in terms of IC50, ITK
# T2 construct: Nanosyn (contract laboratory that ran the panel)
# T2 sequence (Q08881 1-620): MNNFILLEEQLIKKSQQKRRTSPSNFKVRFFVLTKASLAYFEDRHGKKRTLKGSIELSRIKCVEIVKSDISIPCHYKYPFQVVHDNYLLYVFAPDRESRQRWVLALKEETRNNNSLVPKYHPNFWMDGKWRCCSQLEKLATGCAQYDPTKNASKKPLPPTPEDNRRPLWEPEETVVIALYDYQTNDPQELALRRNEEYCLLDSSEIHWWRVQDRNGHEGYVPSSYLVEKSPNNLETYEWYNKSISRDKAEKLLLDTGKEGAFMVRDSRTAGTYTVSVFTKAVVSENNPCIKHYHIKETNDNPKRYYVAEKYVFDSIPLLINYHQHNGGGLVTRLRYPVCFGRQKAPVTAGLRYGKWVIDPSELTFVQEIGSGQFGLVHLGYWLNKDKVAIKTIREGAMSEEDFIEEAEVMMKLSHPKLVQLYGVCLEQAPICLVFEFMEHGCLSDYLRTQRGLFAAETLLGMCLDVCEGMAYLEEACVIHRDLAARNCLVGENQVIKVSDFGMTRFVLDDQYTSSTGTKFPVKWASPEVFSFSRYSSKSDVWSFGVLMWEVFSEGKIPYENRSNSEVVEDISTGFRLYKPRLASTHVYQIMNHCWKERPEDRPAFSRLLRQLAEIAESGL
# Summary of the method: as §1
# [3] = biological target: T3, TYK2 (Homo sapiens, UniProt P29597); conditions: ATP at Km; 30-minute pre-incubation; read-out: kinase inhibition in terms of IC50, TYK2
# T3 construct: purchased Nanosyn
# Summary of the method: as §1
# [4] = biological target: T4, TYRO3 (Homo sapiens, UniProt Q06418); conditions: ATP at Km; 30-minute pre-incubation; read-out: kinase inhibition in terms of IC50, TYRO3
# T4 construct: purchased Nanosyn
# T4 sequence (Q06418 41-890): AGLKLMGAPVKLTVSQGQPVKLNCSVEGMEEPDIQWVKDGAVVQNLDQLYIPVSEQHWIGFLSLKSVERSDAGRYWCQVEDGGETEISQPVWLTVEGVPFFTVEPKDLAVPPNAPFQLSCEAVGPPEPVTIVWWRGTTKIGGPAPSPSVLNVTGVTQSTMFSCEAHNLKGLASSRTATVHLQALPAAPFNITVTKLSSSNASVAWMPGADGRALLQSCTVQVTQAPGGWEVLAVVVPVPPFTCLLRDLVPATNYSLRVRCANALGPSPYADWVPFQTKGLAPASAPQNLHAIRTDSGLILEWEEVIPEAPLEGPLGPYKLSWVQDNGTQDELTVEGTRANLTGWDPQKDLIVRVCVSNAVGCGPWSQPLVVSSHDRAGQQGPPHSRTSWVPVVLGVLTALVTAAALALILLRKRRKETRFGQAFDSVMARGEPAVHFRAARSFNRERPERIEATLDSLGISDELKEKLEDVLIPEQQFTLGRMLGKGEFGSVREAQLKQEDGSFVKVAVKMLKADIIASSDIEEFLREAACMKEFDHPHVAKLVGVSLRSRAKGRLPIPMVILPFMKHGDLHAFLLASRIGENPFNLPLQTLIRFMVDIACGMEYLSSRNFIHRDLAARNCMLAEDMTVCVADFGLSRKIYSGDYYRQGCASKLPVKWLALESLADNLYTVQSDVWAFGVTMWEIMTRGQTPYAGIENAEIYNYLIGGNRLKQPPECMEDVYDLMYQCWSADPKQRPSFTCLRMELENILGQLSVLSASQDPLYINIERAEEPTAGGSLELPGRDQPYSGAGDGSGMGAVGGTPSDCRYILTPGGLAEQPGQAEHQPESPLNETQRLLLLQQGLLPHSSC
# Summary of the method: as §1
# T3 sequence (P29597 whole entry): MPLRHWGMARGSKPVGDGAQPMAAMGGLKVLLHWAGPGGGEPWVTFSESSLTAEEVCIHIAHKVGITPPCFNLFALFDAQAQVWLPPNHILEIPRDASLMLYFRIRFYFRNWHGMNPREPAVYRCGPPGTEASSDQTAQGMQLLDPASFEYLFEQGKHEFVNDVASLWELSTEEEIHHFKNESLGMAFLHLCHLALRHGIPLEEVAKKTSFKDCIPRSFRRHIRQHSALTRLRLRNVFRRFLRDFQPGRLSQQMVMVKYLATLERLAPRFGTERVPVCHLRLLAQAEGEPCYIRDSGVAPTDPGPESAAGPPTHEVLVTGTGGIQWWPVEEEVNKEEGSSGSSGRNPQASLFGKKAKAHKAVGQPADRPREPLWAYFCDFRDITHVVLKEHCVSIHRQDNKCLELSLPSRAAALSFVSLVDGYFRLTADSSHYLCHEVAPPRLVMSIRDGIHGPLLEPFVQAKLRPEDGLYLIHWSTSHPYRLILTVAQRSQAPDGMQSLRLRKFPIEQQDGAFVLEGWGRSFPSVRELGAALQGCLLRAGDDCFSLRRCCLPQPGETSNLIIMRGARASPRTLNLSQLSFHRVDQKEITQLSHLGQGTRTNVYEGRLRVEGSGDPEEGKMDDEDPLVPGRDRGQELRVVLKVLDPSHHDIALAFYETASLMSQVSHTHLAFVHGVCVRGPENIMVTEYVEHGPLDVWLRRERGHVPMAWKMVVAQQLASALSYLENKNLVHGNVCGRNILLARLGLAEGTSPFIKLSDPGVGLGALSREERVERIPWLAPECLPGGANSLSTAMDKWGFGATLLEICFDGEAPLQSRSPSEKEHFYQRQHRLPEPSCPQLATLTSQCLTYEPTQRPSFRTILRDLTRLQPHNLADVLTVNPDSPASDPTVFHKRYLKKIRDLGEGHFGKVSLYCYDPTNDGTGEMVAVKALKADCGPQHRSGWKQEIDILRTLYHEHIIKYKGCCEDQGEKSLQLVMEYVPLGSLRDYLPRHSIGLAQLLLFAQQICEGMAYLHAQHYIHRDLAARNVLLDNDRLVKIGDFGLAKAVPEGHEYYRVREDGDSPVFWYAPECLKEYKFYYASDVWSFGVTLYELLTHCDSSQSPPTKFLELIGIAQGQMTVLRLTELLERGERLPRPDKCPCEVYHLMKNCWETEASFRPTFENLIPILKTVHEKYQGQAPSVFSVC
SMILES,IC50 [1] [nM],IC50 [2] [nM],IC50 [3] [nM],IC50 [4] [nM]
"COc1cc2nccc(Oc3ccc(NC(=O)c4cc(S(C)(=O)=O)n(-c5ccc(F)cc5)n4)c(F)c3)c2cc1OC [Ex71, N-(4-((6,7-dimethoxyquinolin-4-yl)oxy)-2-fluorophenyl)-1-(4-fluorophenyl)-5-(methylsulfonyl)-1H-pyrazole-3-carboxamide]",< 500,≥ 10000,≥ 10000,< 500
"COc1cc2nccc(Oc3ccc(NC(=O)c4cc(S(C)(=O)=O)n(-c5ccc(F)cc5)n4)cc3)c2cc1OC [Ex72, N-(4-((6,7-dimethoxyquinolin-4-yl)oxy)phenyl)-1-(4-fluorophenyl)-5-(methylsulfonyl)-1H-pyrazole-3-carboxamide]",< 500,,1000 to 10000,
"COc1cc2nccc(Oc3ccc(NC(=O)c4cc(S(C)(=O)=O)n(-c5ccc(F)cc5)n4)cc3F)c2cc1OC [Ex73, N-(4-((6,7-dimethoxyquinolin-4-yl)oxy)-3-fluorophenyl)-1-(4-fluorophenyl)-5-(methylsulfonyl)-1H-pyrazole-3-carboxamide]",< 500,1000 to 10000,,1000 to 10000
